From patent US20250339405A1, “a-SYNUCLEIN AGGREGATE BINDING AGENT AND IMAGING METHOD” (National Institutes for quantum and Radiological Science …, priority 2019, published 2025)
Like-named read-outs stand apart in the source and are kept apart here.

Tests used:
[1] = target: T1, α-synuclein aggregate formed in the brain of the DLB patient (Homo sapiens, UniProt P37840); assay: In vitro fluorescence microscope measurement, DLB patient brain sections; assay type: binding; settings: for binding to the α-synuclein aggregate formed in the brain of the DLB patient, reactivity relative to PBB3: 30 μM compound, 50% ethanol, 30 minutes, room temperature, amygdala sections
T1 construct: Postfixed fresh frozen sections of the amygdala tissue of the DLB patient; from tissue; host or cells: post-mortem human DLB amygdala, frozen sections
From the text: Postmortem human brains were obtained from autopsies carried out with respect to a dementia with Lewy bodies (DLB) and Alzheimer's disease (AD) patients.
A frozen DLB tissue was sliced with a thickness of 20 μm in a cryostat (HM560, Carl Zeiss).
Postfixed fresh frozen sections of the amygdala tissue of the DLB patient and formalin fixed, paraffin embedded sections of a deparaffinized middle frontal gyrus tissue of the AD patient were used. Thirty μM of each of the above compounds and brain sections were incubated in a 50% ethanol solution for 30 minutes at room temperature. The sections were then washed twice, i.e., washed with a 50% ethanol solution for 5 minutes and with ultrapure water for 3 minutes. After mounting the sections using a mounting medium (VECTASHIELD H-1000, Vector Laboratories), images of lesion-enriched areas on the sections were obtained using a fluorescence microscope (DM4000, Leica). Analysis software (Image J) was used to quantify the fluorescence of lesion-enriched and lesion-free (background) areas.

α-synuclein aggregate [2] = target: T2, α-synuclein aggregate (Homo sapiens, UniProt P37840); settings: background art, cited from earlier work
α-synuclein aggregate [3] = target: T2, α-synuclein aggregate; assay: Binding to α-synuclein aggregate versus tau aggregate (inventors' finding, no method given)
α-synuclein lesions [4] = target: T3, α-synuclein lesions (Mus musculus, UniProt O55042); assay: In vivo two-photon laser scanning fluorescence microscopy of α-synuclein fibril-injected model mouse; settings: tail vein, 50 μl of 0.05% solution; 90 minutes after C05-05 or 30 minutes after PBB3
T3 construct: from tissue; host or cells: brain of C57BL/6 mice inoculated in the striatum with recombinant murine α-synuclein fibrils (made in E. coli)
Protocol: Note that the α-synuclein aggregate was inoculated into the striatum of the mouse with the following manner. First, hair on the head of 9-week-old C57BL/6 male mouse anesthetized with 1.5% (v/v) isoflurane was removed, and the scalp was disinfected with isodine, followed by application of xylocaine and incision in the scalp to expose the skull. Then, a hole was drilled in the skull at a position of 0.05 mm posterior to the bregma and 2 mm lateral to the midline, and 3 μl of an α-synuclein fiber solution (murine α-synuclein fiber (4 mg/ml) in saline) was injected into a position […] ventral to the brain surface using a glass pipette, and then the scalp was returned and sutured.
A model mouse was anesthetized with 1.5% (v/v) isoflurane 6 weeks after the injection of the α-synuclein fiber solution, and a cranial window was provided according to the Seylaz-Tomita method (Tomita et al. J Cereb Blood Flow Metab 25, 858-67, 2005). The mouse was anesthetized with 1.5% (v/v) isoflurane 2 weeks after the generation of the cranial window, and 50 μl of a solution of DMSO/physiological saline water=1:1 containing 0.05% of C05-05 or PBB3 was administered via the tail vein. The mouse was fixed under a two-photon laser fluorescence microscope 90 minutes after administration of C05-05 or 30 minutes after administration of PBB3, and 100 μl of a saline solution containing 5 mM of Sulforhodamine 101 was administered intraperitoneally, followed by intravital two-photon fluorescence imaging at an excitation wavelength of 900 nm. The detection wavelengths for C05-05 and PBB3 were set at 500 nm to 550 nm, and detection wavelengths for Sulforhodamine 101 were set at 573 nm to 648 nm.

α-synuclein lesions [5] = target: T3, α-synuclein lesions; assay: Ex vivo imaging of α-synuclein fibril-injected model mouse brain; assay type: in vivo; settings: 1.66 mg/kg; brains collected 90 minutes after C05-05 or 120 minutes after BF-227
Protocol: A model mouse at 6 weeks after the injection of the α-synuclein fiber solution was anesthetized with 1.5% (v/v) isoflurane in a manner similar to that described in “(Preparation of α-synuclein fibril-injected mouse model)” above, and C05-05 (1.66 mg/kg) or BF-227 (1.66 mg/kg) was intraperitoneally administered.
The brains were collected and frozen 90 minutes after the administration of C05-05 (or 120 minutes after the administration of BF-227), and frozen sections with the thickness of 20 μm were prepared in a cryostat (HM560). After mounting the sections using a mounting medium (VECTASHIELD H-1000), images of α-synuclein aggregate-enriched areas on the sections were obtained using a fluorescence microscope (DM4000).
Moreover, the same sections were immersed and fixed overnight in a phosphate buffer solution containing 4% paraformaldehyde. The brain after fixation was washed under running water and then treated with an autoclave for the antigen retrieval. Immunohistochemical staining with an anti-phosphorylated α-synuclein monoclonal antibody (pS129, abcam, ab59264) (1:1000) was carried out, and after mounting the sections using a mounting medium (VECTASHIELD H-1000), images of the same areas were obtained using the fluorescence microscope (DM4000). FIG. 7(a) contains images showing the case where C05-05 was administered, and FIG. 7(b) is images showing the case where BF-227 was administered.

[6] = test system: aggregate of tau or amyloid-β formed in the brain of the AD patient; assay: In vitro fluorescence microscope measurement, AD patient brain sections; assay type: binding, human; settings: AD and DLB patient brain sections, 30 μM
From the text: Postmortem human brains were obtained from autopsies carried out with respect to a dementia with Lewy bodies (DLB) and Alzheimer's disease (AD) patients. Moreover, an AD brain tissue was fixed in 10% neutral buffered formalin, embedded in a paraffin block, and sliced with a thickness of 6 μm. Postfixed fresh frozen sections of the amygdala tissue of the DLB patient and formalin fixed, paraffin embedded sections of a deparaffinized middle frontal gyrus tissue of the AD patient were used. Thirty μM of each of the above compounds and brain sections were incubated in a 50% ethanol solution for 30 minutes at room temperature. The sections were then washed twice, i.e., washed with a 50% ethanol solution for 5 minutes and with ultrapure water for 3 minutes. After mounting the sections using a mounting medium ([sequence] H-1000, Vector Laboratories), images of lesion-enriched areas on the sections were obtained using a fluorescence microscope (DM4000, Leica). Analysis software (Image J) was used to quantify the fluorescence of lesion-enriched and lesion-free (background) areas.

Structure (SMILES) | binding to the α-synuclein aggregate formed in the brain of the DLB patient, reactivity relative to PBB3 [1] | binding selectivity for the α-synuclein aggregate compared with a tau aggregate (α-synuclein aggregate [3]) | other results
CNc1ccc(C#C/C=C/c2nc3ccc(O)cc3s2)cc1 [C05-09, (E)-2-(4-(4-(methylamino)phenyl)but-1-en-3-ynyl)benzo[d]thiazol-6-ol] | reactivity equal to or greater than that of PBB3 | – | –
CN([11CH3])c1ncc(/C=C/c2nc3ccc(OCCF)cc3o2)s1 [[^11C]BF-227] | – | – | binding selectivity for the α-synuclein aggregate (α-synuclein aggregate [2]; binds to an amyloid-β aggregate): low; binding affinity for the α-synuclein aggregate (α-synuclein aggregate [2]): insufficient; detection of α-synuclein lesions in patients by PET (α-synuclein aggregate [2]): only in a subset of MSA patients
CNc1ccc(C#C/C=C/c2cc3cc(O)ccc3o2)c(F)n1 [C06-02] | reactivity equal to or greater than that of PBB3 | – | –
CN(C)c1ccc(C#C/C=C/c2nc3ccc(O)cc3s2)cc1 [C05-08, (E)-2-(4-(4-(dimethylamino)phenyl)but-1-en-3-ynyl)benzo[d]thiazol-6-ol] | reactivity equal to or greater than that of PBB3 | – | –
CNc1ccc(C#C/C=C/c2nc3ccc(O)cc3s2)c(F)n1 [C05-01, (E)-2-(4-(2-fluoro-6-(methylamino)pyridin-3-yl)but-1-en-3-ynyl)benzo[d]thiazol-6-ol] | reactivity equal to or greater than that of PBB3 | – | –
CNc1ccc(/C=C/C=C/c2nc3ccc(O)cc3s2)cn1 [PBB3, 2-((1E,3E)-4-(6-(methylamino)pyridin-3-yl)buta-1,3-dienyl)benzo[d]thiazol-6-ol] | – | lower binding selectivity for the α-synuclein aggregate as compared with its binding selectivity for a tau aggregate | binding to the α-synuclein aggregate (α-synuclein aggregate [3]): some degree of affinity; binding selectivity for the α-synuclein aggregate compared with a tau aggregate (α-synuclein aggregate [3]; listed as 2-((1E,3E)-4-(6-(methylamino)pyridin-3-yl)buta-1,3-dienyl)benzo[d]thiazol-6-ol): higher binding selectivity for an aggregate of tau proteins than to an α-synuclein aggregate; detection of α-synuclein lesions by intravital two-photon fluorescence imaging (α-synuclein lesions [4]): no lesion was detected
CN(C)c1ncc(/C=C/c2nc3ccc(OCCF)cc3o2)s1 [BF-227, 2-(2-[2-dimethylaminothiazol-5-yl]ethenyl)-6-5 (2-[fluoro]ethoxy)benzoxazole, reference compound] | – | – | binding to the α-synuclein aggregate relative to the compounds represented by the formula (I) ([1]; 30 μM, DLB patient brain sections): weaker than the compounds represented by the formula (I); detection of α-synuclein lesions by ex vivo imaging (α-synuclein lesions [5]): no lesion was detected; aggregate mainly bound [6]: mainly bound to the amyloid-β aggregate of AD
CNc1ccc(C#C/C=C/c2nc3ccc(O)cc3s2)cn1 [C05-03, (E)-2-(4-(6-(methylamino)pyridin-3-yl)but-1-en-3-ynyl)benzo[d]thiazol-6-ol] | reactivity equal to or greater than that of PBB3 | – | –
[11CH3]Nc1ccc(/C=C/C=C/c2nc3ccc(O)cc3s2)cn1 [2-((1E,3E)-4-(6-((11)C-methylamino)pyridin-3-yl)buta-1,3-dienyl)benzo[d]thiazol-6-ol] | – | higher binding selectivity for an aggregate of tau proteins than to an α-synuclein aggregate | –
CNc1ccc(C#C/C=C/c2nc3ccc(CN)cc3s2)cn1 [C05-02, (E)-5-(4-(6-(aminomethyl)benzo[d]thiazol-2-yl)but-3-en-1-ynyl)-N-methylpyridine-2-amine] | reactivity equal to or greater than that of PBB3 | – | –
CNc1ccc(/C=C/C=C/c2nc3ccc(OCC(O)C[18F])cc3s2)cn1 (centres unmarked) [1-(18)F-fluoro-3-(2-((1E,3E)-4-(6-(methylamino)pyridin-3-yl)buta-1,3-dienyl)benzo[d]thiazol-6-yloxy)propan-2-ol] | – | higher binding selectivity for an aggregate of tau proteins than to an α-synuclein aggregate | –
CNc1ccc(C#C/C=C/c2nc3ccc(OC)cc3s2)c(F)n1 [C05-04] | reactivity equal to or greater than that of PBB3 | – | –
CNc1ccc(/C=C/C=C/c2nc3ccc(OCC(O)CF)cc3s2)cn1 (centres unmarked) [1-fluoro-3-(2-((1E,3E)-4-(6-(methylamino)pyridin-3-yl)buta-1,3-dienyl)benzo[d]thiazol-6-yloxy)propan-2-ol] | – | higher binding selectivity for an aggregate of tau proteins than to an α-synuclein aggregate | –
